In patent US20110190300A1, “AMIDE COMPOUNDS AND THE USE THEREOF” (priority 2007, published 2011) one finds IC50 data, which are given here for 8 molecules.

For test [1], the target named is T1, N-type calcium channel (NTCC) (Homo sapiens, UniProt Q00975).
T1 construct: host or cells: IMR32 cells differentiated with dibutyryl cyclic AMP and bromodeoxyuridine
Nature of the test: FLIPR calcium mobilization assay for N-type calcium channel. The note with it: calcium mobilization in vitro assay; differentiated IMR32 cells, 5 μM nitrendipine, 90 mM KCl. It counts as cell-based. As to the method:
Cell maintenance and differentiation. Unless noted otherwise, cell culture reagents were purchased from Mediatech of Herndon, Md. IMR32 cells (American Type Culture Collection, ATCC, Manassas, Va.) were routinely cultured in growth medium consisting of minimum essential medium containing 10% fetal bovine serum (FBS, Hyclone, Logan, Utah), 100 U/mL penicillin, 100 μg/mL streptomycin, 2 mM L-glutamine, 1 mM sodium pyruvate, and 1× MEM non-essential amino acids. 80-90% confluent flasks of cells were differentiated using the following differentiation medium: Growth medium plus 1 mM dibutyryl cyclic AMP (Sigma, St. Louis, Mo.), and 2.5 μM bromodeoxyuridine (Sigma). Cells were differentiated for 8 days by replacing differentiation medium every 2-3 days.
FLIPR Calcium Mobilization Assay for N-type Calcium Channel. One day prior to performing this assay, differentiated IMR32 cells were treated with 1× CellStripper, and seeded on poly-D-lysine-coated 96-well clear-bottom black plates (Becton Dickinson, Franklin Lakes, N.J.) at 200,000 cells/well. On the day of the assay, the cell plates were washed with IMR32 buffer (127 mM NaCl, 1 mM KCl, 2 mM MgCl2, 700 μM NaH2PO4, 5 mM CaCl2, 5 mM NaHCO3, 8 mM HEPES, 10 mM glucose, pH 7.4), then pre-stimulated with KCl and loaded as follows: 0.05 mL of IMR32 buffer, 0.05 mL of each compound tested diluted in IMR32 buffer containing 20 μM nitrendipine (Sigma), and 0.1 mL KCl dissolved in IMR32 buffer, plus Fluo-4 were added (3 μM final concentration, Molecular Probes, Eugene, Oreg.). Final test compound concentrations ranged from about 846 pM to about 17 μM, final nitrendipine concentration was 5 μM, and final KCl concentration was 90 mM. After 1 hour, the cells were washed twice with 0.05 mL of each compound tested in nitrendipine-containing IMR32 buffer (no KCl or Fluo-4), and then replaced with 0.1 mL of each compound tested in nitrendipine-containing IMR32 buffer. Plates were then transferred to a Fluorimetric Imaging Plate Reader (FLIPR^96, Molecular Devices, Inc., Sunnyvale, Calif.) for assay. The FLIPR measured basal Fluo-4 fluorescence for 315 seconds (i.e., 5 minutes and 15 seconds), then added 0.1 mL KCl agonist dissolved in IMR32 buffer and measured fluorescence for another 45 seconds. Final test compound concentrations on the cells after FLIPR read ranged from about 846 pM to about 17 μM, final nitrendipine concentration was 5 μM, and final KCl concentration was 90 mM. Data were collected over the entire time course and analyzed using Excel, Graph Pad Prism (version 3.02, Graph Pad, San Diego, Calif.), or an in-house non-linear regression analysis software.
A general note: Calcium flux is commonly read through the fluorescence of an indicator in the cells.

In test [2] the target is T2, L-type calcium channel (LTCC) (Rattus norvegicus, UniProt P22002).
T2 construct: expressed in transfected cells; host or cells: HEK293, stably transfected (pcDNA6.2DEST α1c, pcDNA3.2DEST β1, pcDNA3.1-Zeo α2δ)
As to the kind of experiment: FLIPR calcium mobilization assay for L-type calcium channel. Type of test: cell-based. The note with it: calcium mobilization in vitro assay; HEK293 cells stably expressing recombinant rat LTCC subunits (α1c, α2δ, β1), 90 mM KCl. As to the method: Recombinant human embryonal kidney cells (HEK293, ATCC) stably transfected with either N-type calcium channel (NTCC) subunits (α1b, α2δ, and β3) or L-type calcium channel (LTCC) subunits (α1c, α2δ, and β1) were routinely cultured in growth medium consisting of Dulbecco's Modified Eagles Medium containing 10% FBS, 100 U/mL penicillin, 100 μg/mL streptomycin, 4 mM L-glutamine, 500 μg/mL geneticin (G418), 20 μg/mL Blasticidin S (InVivogen, San Diego, Calif.) and 500 μg/mL zeocin (InVivogen).
FLIPR Calcium Mobilization Assay for L-type Calcium Channel. One day prior to performing this assay, HEK293 cells stably expressing recombinant rat L-type calcium channel (LTCC) subunits (α1c, α2δ, and β1) were trypsinized, then seeded on poly-D-lysine-coated 96-well clear-bottom black plates (Becton Dickinson, Franklin Lakes, N.J.) at 75,000 cells/well. On the day of the assay, the plates were washed with LTCC wash buffer (127 mM NaCl, 2 mM MgCl2, 700 μM NaH2PO4, 5 mM CaCl2, 5 mM NaHCO3, 8 mM HEPES, 10 mM glucose, pH 7.4), then loaded with 0.1 mL of LTCC wash buffer containing Fluo-4 (3 μM final concentration, Molecular Probes, Eugene, Oreg.). After 1 hour, the cells were washed with 0.1 mL LTCC wash buffer and resuspended in 0.05 mL LTCC assay buffer (same composition as LTCC wash buffer). Plates were then transferred to a FLIPR^96 for assay. The FLIPR measured basal Fluo-4 fluorescence for 15 seconds, then added 0.05 mL of each compound tested diluted in LTCC assay buffer at final concentrations ranging from about 846 pM to about 17 μM. Fluo-4 fluorescence was then measured for 5 minutes. 0.1 mL KCl agonist dissolved in LTCC assay buffer was then added to the cells to produce a final concentration of 90 mM KCl, and fluorescence was measured for another 45 seconds. Data were collected over the entire time course and analyzed using Excel, Graph Pad Prism, or an in-house regression analysis software.

By IC50 is commonly meant the point on the concentration scale where inhibition reaches its midpoint.

T1 sequence (Q00975 whole entry): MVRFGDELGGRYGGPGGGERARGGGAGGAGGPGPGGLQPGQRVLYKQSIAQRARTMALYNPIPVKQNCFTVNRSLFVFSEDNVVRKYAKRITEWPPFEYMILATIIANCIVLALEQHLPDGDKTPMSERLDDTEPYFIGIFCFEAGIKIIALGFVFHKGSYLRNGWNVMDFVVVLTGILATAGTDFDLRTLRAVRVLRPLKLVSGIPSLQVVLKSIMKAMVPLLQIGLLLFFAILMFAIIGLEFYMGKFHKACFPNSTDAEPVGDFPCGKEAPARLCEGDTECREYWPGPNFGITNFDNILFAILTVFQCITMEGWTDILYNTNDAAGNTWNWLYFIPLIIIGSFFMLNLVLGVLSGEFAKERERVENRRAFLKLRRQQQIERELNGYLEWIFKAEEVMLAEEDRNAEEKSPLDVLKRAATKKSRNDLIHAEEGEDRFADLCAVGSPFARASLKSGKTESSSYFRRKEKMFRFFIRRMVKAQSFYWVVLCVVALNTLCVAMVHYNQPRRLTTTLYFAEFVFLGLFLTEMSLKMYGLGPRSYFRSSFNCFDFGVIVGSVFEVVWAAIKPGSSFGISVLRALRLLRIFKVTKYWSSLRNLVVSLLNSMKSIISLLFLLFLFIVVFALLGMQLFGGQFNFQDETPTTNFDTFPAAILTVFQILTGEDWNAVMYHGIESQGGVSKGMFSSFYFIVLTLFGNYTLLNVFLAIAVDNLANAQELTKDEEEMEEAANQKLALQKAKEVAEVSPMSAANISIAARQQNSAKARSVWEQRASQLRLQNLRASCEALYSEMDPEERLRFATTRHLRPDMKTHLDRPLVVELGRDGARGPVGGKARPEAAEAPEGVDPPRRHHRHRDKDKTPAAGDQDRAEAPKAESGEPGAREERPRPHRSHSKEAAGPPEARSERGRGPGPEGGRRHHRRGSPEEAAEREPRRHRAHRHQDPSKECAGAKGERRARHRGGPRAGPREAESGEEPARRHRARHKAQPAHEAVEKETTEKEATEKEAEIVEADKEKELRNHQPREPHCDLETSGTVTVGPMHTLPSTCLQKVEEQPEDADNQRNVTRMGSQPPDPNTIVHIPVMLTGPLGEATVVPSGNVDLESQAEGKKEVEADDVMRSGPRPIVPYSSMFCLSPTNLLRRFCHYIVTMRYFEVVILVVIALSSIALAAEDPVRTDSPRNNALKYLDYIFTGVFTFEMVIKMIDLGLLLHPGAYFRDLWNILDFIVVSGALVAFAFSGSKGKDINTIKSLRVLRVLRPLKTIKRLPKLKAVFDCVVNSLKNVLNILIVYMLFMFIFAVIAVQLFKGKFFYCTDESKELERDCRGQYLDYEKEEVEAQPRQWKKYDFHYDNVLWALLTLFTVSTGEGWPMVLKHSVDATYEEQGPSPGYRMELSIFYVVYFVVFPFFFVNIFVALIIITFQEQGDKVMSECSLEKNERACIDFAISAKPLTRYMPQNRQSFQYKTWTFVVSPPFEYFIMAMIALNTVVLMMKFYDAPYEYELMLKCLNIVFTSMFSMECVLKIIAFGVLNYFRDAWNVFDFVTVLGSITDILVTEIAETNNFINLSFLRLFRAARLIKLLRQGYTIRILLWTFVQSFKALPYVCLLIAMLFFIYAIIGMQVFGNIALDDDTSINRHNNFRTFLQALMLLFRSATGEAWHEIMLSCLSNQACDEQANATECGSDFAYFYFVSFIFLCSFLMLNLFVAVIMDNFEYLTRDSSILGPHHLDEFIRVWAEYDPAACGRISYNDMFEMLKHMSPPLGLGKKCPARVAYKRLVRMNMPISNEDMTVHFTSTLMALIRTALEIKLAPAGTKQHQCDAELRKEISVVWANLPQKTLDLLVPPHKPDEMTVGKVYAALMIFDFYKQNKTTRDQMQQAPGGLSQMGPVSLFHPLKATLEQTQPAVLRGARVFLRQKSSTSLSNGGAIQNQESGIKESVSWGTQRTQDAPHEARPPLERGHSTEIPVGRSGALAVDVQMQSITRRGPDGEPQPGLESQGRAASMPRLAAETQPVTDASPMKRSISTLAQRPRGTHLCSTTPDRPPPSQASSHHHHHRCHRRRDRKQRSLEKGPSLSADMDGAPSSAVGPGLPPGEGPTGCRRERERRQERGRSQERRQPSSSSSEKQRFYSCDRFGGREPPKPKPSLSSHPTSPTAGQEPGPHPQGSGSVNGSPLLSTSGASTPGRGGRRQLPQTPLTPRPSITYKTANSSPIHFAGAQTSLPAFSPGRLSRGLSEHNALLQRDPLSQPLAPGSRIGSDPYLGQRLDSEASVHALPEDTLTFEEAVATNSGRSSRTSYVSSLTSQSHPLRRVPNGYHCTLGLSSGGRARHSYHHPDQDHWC
T1 sequence (P54289 25-956 partner limits assumed): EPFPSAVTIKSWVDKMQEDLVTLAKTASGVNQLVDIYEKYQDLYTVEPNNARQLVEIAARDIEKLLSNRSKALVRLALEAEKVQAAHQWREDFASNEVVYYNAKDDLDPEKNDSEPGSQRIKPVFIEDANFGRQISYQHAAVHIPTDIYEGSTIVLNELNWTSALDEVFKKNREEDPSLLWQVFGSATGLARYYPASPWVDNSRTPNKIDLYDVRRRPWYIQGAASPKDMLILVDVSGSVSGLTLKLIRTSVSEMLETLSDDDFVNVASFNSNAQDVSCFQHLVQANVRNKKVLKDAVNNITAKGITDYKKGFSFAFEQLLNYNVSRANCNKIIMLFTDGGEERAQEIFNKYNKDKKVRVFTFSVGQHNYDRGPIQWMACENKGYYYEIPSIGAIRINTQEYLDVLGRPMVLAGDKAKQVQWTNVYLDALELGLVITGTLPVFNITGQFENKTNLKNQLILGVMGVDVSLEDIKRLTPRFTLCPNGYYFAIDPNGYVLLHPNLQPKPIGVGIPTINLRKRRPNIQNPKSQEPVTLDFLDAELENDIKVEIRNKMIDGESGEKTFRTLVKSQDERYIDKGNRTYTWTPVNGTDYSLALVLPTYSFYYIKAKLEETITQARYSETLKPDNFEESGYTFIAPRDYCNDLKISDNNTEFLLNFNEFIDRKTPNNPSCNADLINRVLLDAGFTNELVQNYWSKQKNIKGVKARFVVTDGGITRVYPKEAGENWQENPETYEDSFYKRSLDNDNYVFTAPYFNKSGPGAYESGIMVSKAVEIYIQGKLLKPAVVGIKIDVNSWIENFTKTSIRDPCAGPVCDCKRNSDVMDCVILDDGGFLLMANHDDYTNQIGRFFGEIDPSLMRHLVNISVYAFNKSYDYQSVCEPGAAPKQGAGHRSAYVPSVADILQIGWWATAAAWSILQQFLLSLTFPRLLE
T1 sequence (P54289 957-1103 partner limits assumed): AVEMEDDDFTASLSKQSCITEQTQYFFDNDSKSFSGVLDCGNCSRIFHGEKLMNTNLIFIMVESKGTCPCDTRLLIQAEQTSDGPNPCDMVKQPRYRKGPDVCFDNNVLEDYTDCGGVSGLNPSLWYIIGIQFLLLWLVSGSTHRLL
T1 sequence (P54284 whole entry partner): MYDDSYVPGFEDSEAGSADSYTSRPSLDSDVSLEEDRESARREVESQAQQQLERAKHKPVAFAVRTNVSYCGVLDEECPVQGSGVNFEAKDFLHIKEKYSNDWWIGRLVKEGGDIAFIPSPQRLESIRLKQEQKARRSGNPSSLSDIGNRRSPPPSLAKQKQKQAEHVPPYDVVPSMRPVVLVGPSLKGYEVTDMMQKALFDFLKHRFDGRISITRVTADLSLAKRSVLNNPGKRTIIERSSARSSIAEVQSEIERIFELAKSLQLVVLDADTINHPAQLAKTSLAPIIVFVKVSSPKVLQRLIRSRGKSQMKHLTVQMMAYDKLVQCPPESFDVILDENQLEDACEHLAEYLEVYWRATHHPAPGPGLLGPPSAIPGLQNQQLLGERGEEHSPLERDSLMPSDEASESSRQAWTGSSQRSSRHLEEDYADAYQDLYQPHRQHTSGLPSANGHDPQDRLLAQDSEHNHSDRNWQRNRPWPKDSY

For `O=C(Nc1ccc(F)cc1)ON=C1CCN(C(=O)Oc2cccc(C(F)(F)F)c2)CC1` [Example 131, 3-(trifluoromethyl)phenyl 4-(4-fluorophenylcarbamoyloxyimino)piperidine-1-carboxylate], the IC50 in test [1] came to 1800 nM.

`CN(C(=O)CON=C1CCN(S(=O)(=O)c2ccc(OC(F)(F)F)cc2)CC1)c1ccccc1` [Example 3, N-Methyl-N-phenyl-2-[1-(4-trifluoromethoxybenzenesulfonyl)piperidin-4-ylideneaminooxy]acetamide]: the concentration for half-maximal inhibition (IC50) in test [1] was 1200 nM; in test [2], 8500 nM.

In the case of `O=C(CON=C1CCN(S(=O)(=O)c2ccc(OC(F)(F)F)cc2)CC1)NC1CCCCC1` [Example 100, N-Cyclohexyl-2-[1-(4-trifluoromethoxybenzenesulfonyl)piperidin-4-ylideneaminooxy]acetamide], the 50% inhibitory concentration (IC50) in test [1] was 410 nM; in test [2], more than 20000 nM.

Regarding `O=C(CON=C1CCN(S(=O)(=O)c2ccc(OC(F)(F)F)cc2)CC1)NCc1ccccc1` [Example 98, N-Benzyl-2-[1-(4-trifluoromethoxybenzenesulfonyl)piperidin-4-ylideneaminooxy]acetamide], the half-maximal inhibitory concentration (IC50) in test [1] was 1100 nM; in test [2], more than 20000 nM.

For `CCCNC(=O)CON=C1CCN(S(=O)(=O)c2ccc(OC(F)(F)F)cc2)CC1` [Example 102, N-Propyl-2-[1-(4-trifluoromethoxybenzenesulfonyl)piperidin-4-ylideneaminooxy]acetamide], the results for the IC50 in test [1] and in test [2] were 210 nM and more than 20000 nM, respectively.

With `O=C(Nc1ccc(F)cc1)ON=C1CCN(S(=O)(=O)c2cccc(C(F)(F)F)c2)CC1` [Example 104, 1-(3-(trifluoromethyl)phenylsulfonyl)piperidin-4-one O-4-fluorophenylcarbamoyl oxime], the results for the IC50 in test [1] and in test [2] were 240 nM and more than 20000 nM, respectively.

Regarding `O=C(CON=C1CCN(S(=O)(=O)c2ccc(OC(F)(F)F)cc2)CC1)Nc1ccccc1` [Example 2, N-Phenyl-2-[1-(4-trifluoromethoxybenzenesulfonyl)piperidin-4-ylideneaminooxy]acetamide], the IC50 in test [1] is 420 nM; in test [2] it was more than 20000 nM.

As to `CC(C)CNC(=O)CON=C1CCN(S(=O)(=O)c2ccc(OC(F)(F)F)cc2)CC1` [Example 99, N-Isobutyl-2-[1-(4-trifluoromethoxybenzenesulfonyl)piperidin-4-ylideneaminooxy]acetamide], the IC50 was 300 nM in test [1] and more than 20000 nM in test [2].
